According to article PMC9601193, “Intracellular Metabolomics Identifies Efflux Transporter Inhibitors in a Routine Caco-2 Cell Permeability Assay—Biological Implications” (Cells, 2022):
Values belong to the compound of their own block, whether it stands above or below them.

What was measured:
BCRP [1] = target: T1, BCRP (Homo sapiens, UniProt Q9UNQ0); assay: Intracellular LC-MS metabolomic signature and inhibition score for BCRP in Caco-2 cells; conditions: Ko143 10 µM, Fumitremorgin C 5 µM, novobiocin 30 µM; Caco-2, 2 h
T1 sequence (Q9UNQ0 1-655): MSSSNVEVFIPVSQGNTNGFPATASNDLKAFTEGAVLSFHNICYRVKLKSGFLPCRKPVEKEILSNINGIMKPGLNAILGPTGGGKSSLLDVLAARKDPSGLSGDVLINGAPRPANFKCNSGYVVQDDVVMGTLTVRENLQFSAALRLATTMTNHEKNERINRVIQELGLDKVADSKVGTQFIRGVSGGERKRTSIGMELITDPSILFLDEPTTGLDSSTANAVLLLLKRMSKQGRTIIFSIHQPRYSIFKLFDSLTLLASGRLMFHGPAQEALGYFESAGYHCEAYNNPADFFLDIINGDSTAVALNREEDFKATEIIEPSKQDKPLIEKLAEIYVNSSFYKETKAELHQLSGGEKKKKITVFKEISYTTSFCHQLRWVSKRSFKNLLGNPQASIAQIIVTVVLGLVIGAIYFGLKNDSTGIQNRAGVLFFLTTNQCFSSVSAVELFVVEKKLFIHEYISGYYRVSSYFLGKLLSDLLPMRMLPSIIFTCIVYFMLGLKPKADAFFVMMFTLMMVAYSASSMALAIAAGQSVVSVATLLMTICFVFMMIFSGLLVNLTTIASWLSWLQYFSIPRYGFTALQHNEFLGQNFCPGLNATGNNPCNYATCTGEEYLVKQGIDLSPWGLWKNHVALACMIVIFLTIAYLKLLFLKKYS
Procedure: First, 2 × 10^4 cells/well were seeded on a 96 Transwell™ thin film polycarbonate membrane (0.4 µM pore size). Plates were incubated at 37 °C, 5% CO2 and 95% humidity. The cells were grown for 10 days and then treated on day 10. The monolayer integrity was checked prior to the experiment by measuring the transepithelial electrical resistance (TEER) using a TEER electrode. All TEER values ranged between 2000 and 4000 ohms∗cm^2, values greater than 1000 ohms∗cm^2 were used as an indicator of an intact monolayer.
MK571 (200 µM, n = 3) and Benzbromarone (66.7 µM, n= 1) were used to inhibit MRP2 activity. The compounds were diluted to the final concentration in HBSS (pH 7.4); 1% DMSO in HBSS was used as a control. Before treatment, media was removed, and the cells were washed twice with HBSS. […]
MultiQuant® software (v 3.0.3) was used for peak integration and the peak area for each metabolite was then exported. All data sets were normalized using the total sum of the quantified analyte area. The data were analyzed by SIMCA® 15/17 for multivariate analysis including Orthogonal Partial Least Squares–Discriminant Analysis (OPLS-DA). […]
The percentage difference for the normalized area of each (transporter) signature metabolite was calculated using the following equation:100 × (treated—control)/control

MRP2 [2] = target: T2, MRP2 (Homo sapiens, UniProt Q92887); assay: Caco-2 efflux of MRP2 probe CDCF (fluorescence) with/without inhibitor or in MRP2 KO cells; type: cell-based; conditions: for specificity of MRP2 inhibitors (functional assessment, Supplementary Table S1): Caco-2
T2 construct: express major uptake and efflux transporters on the apical and basal membranes, including the key efflux transporters Pgp, BCRP and MRP2; host or cells: Caco-2 (HTB-37); C2BBe1 clone WT/KO cells from SOLVO Biotechnology for the knockout comparisons
Procedure: (§1) The compounds were first added into either the apical or basolateral chamber in the absence or presence of the relevant inhibitor. After 2 h incubation with the compounds, the samples from the apical and basolateral chamber were collected.
For MRP2 functional analysis, CDCF-DA (non-fluorescent diacetate), was added on the apical or basal chamber which diffuses into the cells and is converted into fluorescent CDCF (MRP2 substrate) by intracellular esterases. Efflux of the fluorescent CDCF was monitored by transferring 75 μL of samples from both the donor and acceptor compartments to a clear-bottomed black 96-well plate. The CDCF fluorescence was then measured on the plate reader with 485 (exc)/528 (em) nm wavelength.
(§2) The apparent permeability (Papp) of the substrate was calculated as follows: • Papp = (dQ/dt)/(C0 × Vr A) • dQ/dt = slope of the linear portion of the permeated amount versus time curve (µmol/l/s) • A = effective surface area of the Transwell insert (0.11 cm^2) • C0 = initial concentration of the substrate (µmol/L) • Vr = the volume of the receiver chamber (mL).
(§3) The efflux ratio was calculated as follows: • Papp (B to A)/Papp (A to B)
(§4) Pgp, BCRP and MRP2 knockout (stable) Caco-2 cells (C2BBe1) were kindly provided by SOLVO Biotechnology (Szeged, Hungary). The individual transporters were knocked out using zinc finger nuclease technology. The knockout cell lines were cultured for 21 days except BCRP KO, which was grown for 25 days in a 96-well format. Assay conditions were in accordance with the Caco-2 assay from our lab. Transport analysis was performed according to the protocol described above. After transport experiments, metabolites were extracted from Caco-2 cells and analyzed according to the protocols described below.

BCRP [3] = target: T1, BCRP; assay: Caco-2 bidirectional transport of BCRP probe estrone-3-sulfate with/without inhibitor or in BCRP KO cells; type: cell-based; parameters: express major uptake and efflux transporters on the apical and basal membranes, including the key efflux transporters Pgp, BCRP and MRP2; host or cells: Caco-2 (HTB-37); C2BBe1 clone WT/KO cells from SOLVO Biotechnology for the knockout comparisons; conditions: C2BBe1 Caco-2 BCRP KO vs WT
Procedure: as §1
(§5) For Pgp and BCRP functional analysis, a 75 µL aliquot of the samples was collected from both the donor and acceptor compartments and transferred to a new 96-well microplate (V bottom) containing 75 µL of methanol. 10 µL from the mixture was collected and transferred to a new plate containing 90 µL of 50:50 methanol/water. The concentration of probe substrates in the samples was then quantified using LC-MS.
The flow rate was 0.6 mL/min, and the total run time was 3.5 min. […]
as §2, §3
Pgp, BCRP and MRP2 knockout (stable) Caco-2 cells (C2BBe1) were kindly provided by SOLVO Biotechnology (Szeged, Hungary). […] After transport experiments, metabolites were extracted from Caco-2 cells and analyzed according to the protocols described below.

Pgp [4] = target: T3, Pgp (Homo sapiens, UniProt P08183); assay: Caco-2 bidirectional transport of Pgp probe indinavir with/without inhibitor or in Pgp KO cells; type: cell-based; conditions: for specificity of Pgp inhibition among Pgp, BCRP and MRP2 (functional experiments): zosuquidar 10 µM, valspodar 50 nM
T3 construct: express major uptake and efflux transporters on the apical and basal membranes, including the key efflux transporters Pgp, BCRP and MRP2; host or cells: Caco-2 (HTB-37); C2BBe1 clone WT/KO cells from SOLVO Biotechnology for the knockout comparisons
Procedure: as §1, §5
The flow rate was 0.6 mL/min, and the total run time was 3.5 min. The sample injection volume was 2 μL. Sample data were acquired using Analyst software.
as §2, §3, §4

Pgp [5] = target: T3, Pgp; assay: Intracellular LC-MS metabolomic signature and inhibition score for Pgp in Caco-2 cells; type: cell-based; conditions: some of the metabolites
Procedure: (§6) Samples were dried using a nitrogen evaporator.
(§7) The sample injection volume was 2 μL. Sample data were acquired using Analyst software. All the samples were randomized to avoid analytical bias.
For example, for Pgp, the percentage changes in Pgp signature metabolites with Pgp inhibition were summed to calculate a Pgp inhibition score for that inhibitor.

MTHFR = assay: Protein expression by Simple Western (WES/JESS) in Caco-2 cells: MTHFR; type: cell-based, human; conditions: 24 h; zosuquidar 5 µM, Ko143 10 µM, MK571 200 µM; normalized to vinculin
Procedure: (§8) Cells were grown in a 6-well plate for 48 h and in a transwell for 10 days. Cells in the 6-well plates were incubated with inhibitors for 24 h and the cells in the transwell plate were incubated with inhibitors for 2 h to replicate metabolic effects. Protein extraction was performed once the cells were 90% confluent. Lysis buffer solution was prepared by adding 200 µL of phosphatase inhibitor cocktail 2 and 3 (Sigma-Aldrich, Dorset, UK), 100 µL of 100 mM PMSF protease inhibitor and 1 mL of CST lysis buffer (Cell Signaling Technology, Danvers, MA, USA) to 8.5 mls of deionized water. In the 6-well plate, cells were washed twice with ice-cold PBS, lysed with 500 μL of cold lysis buffer and transferred to Eppendorf tubes. The KO cells were lysed immediately after being taken out of the liquid nitrogen stock. […] The total protein concentration of the lysate was determined using Direct Detect™ infrared (IR)-based quantification system. […]
(§9) Different loading controls were used, depending on molecular weight and relative intensities of signal, and conditions were optimized accordingly. Protein samples were analyzed on a JESS/WES® (Simple Western system, Bio-Techne, Abingdon, UK) according to the manufacturer’s instructions (Protein Simple, Bio-Techne, Abingdon, UK) using a 12–230 kDa separation module. […]

thymidylate synthase = assay: Protein expression by Simple Western (WES/JESS) in Caco-2 cells: thymidylate synthase; type: cell-based, human; conditions: 24 h incubation; zosuquidar 5 µM, MK571 200 µM
Procedure: as §8, §9

methionine synthase = assay: Protein expression by Simple Western (WES/JESS) in Caco-2 cells: methionine synthase; type: cell-based, human; conditions: 2 and 24 h incubation; zosuquidar 5 µM
Procedure: as §8, §9

[6] = parameters: method as in PMID 33312947; conditions: trials testing efficacy against multidrug resistance; cited from earlier work
MRP2 [7] = target: T2, MRP2; assay: Intracellular LC-MS metabolomic signature and inhibition score for MRP2 in Caco-2 cells; type: cell-based
Procedure: as §6, §7

[8] = test system: Adenosylhomocysteinase (AHCY); assay: Protein expression by Simple Western (WES/JESS) in Caco-2 cells: AHCY; type: cell-based, human; conditions: 2 and 24 h incubation; MK571 200 µM
Procedure: as §8, §9

[9] = test system: Serine Hydroxymethyltransferase 1 (SHMT1); assay: Protein expression by Simple Western (WES/JESS) in Caco-2 cells: SHMT1; type: cell-based, human; conditions: 2 and 24 h; MK571 200 µM
Procedure: as §8, §9

T3 sequence (P08183 whole entry): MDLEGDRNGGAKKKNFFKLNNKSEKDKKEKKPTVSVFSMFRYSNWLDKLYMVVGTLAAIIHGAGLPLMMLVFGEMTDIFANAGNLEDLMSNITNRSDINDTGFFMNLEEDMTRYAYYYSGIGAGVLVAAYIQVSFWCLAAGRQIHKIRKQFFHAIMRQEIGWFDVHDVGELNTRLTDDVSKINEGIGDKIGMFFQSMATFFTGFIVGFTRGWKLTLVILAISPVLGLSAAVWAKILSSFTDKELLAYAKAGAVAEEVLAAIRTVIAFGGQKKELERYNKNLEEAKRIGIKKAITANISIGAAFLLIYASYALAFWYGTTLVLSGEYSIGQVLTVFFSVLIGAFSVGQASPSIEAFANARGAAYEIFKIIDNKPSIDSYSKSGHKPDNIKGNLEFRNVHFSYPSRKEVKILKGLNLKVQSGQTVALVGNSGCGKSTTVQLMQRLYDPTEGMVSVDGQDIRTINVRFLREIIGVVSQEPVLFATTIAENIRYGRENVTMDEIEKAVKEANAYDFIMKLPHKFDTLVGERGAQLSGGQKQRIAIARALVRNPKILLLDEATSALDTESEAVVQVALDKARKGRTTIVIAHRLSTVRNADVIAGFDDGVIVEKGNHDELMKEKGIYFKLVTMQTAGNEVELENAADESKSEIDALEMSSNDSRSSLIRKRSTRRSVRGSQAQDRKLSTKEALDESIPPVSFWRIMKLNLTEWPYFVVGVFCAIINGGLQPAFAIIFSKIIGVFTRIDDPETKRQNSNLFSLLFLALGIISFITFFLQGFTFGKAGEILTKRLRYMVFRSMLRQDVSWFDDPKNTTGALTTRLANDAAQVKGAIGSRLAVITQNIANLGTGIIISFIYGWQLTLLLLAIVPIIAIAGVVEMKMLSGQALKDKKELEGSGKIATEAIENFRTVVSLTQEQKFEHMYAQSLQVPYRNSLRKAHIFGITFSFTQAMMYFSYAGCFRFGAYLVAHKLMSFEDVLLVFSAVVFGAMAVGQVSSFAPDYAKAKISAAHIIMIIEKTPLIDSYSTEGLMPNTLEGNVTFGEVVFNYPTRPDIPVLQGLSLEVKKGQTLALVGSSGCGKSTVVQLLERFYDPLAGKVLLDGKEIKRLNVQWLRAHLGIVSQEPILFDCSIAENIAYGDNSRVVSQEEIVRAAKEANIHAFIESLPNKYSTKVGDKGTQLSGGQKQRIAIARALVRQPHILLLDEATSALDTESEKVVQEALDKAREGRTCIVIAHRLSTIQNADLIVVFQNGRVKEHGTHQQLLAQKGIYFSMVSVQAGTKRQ
T2 sequence (Q92887 whole entry): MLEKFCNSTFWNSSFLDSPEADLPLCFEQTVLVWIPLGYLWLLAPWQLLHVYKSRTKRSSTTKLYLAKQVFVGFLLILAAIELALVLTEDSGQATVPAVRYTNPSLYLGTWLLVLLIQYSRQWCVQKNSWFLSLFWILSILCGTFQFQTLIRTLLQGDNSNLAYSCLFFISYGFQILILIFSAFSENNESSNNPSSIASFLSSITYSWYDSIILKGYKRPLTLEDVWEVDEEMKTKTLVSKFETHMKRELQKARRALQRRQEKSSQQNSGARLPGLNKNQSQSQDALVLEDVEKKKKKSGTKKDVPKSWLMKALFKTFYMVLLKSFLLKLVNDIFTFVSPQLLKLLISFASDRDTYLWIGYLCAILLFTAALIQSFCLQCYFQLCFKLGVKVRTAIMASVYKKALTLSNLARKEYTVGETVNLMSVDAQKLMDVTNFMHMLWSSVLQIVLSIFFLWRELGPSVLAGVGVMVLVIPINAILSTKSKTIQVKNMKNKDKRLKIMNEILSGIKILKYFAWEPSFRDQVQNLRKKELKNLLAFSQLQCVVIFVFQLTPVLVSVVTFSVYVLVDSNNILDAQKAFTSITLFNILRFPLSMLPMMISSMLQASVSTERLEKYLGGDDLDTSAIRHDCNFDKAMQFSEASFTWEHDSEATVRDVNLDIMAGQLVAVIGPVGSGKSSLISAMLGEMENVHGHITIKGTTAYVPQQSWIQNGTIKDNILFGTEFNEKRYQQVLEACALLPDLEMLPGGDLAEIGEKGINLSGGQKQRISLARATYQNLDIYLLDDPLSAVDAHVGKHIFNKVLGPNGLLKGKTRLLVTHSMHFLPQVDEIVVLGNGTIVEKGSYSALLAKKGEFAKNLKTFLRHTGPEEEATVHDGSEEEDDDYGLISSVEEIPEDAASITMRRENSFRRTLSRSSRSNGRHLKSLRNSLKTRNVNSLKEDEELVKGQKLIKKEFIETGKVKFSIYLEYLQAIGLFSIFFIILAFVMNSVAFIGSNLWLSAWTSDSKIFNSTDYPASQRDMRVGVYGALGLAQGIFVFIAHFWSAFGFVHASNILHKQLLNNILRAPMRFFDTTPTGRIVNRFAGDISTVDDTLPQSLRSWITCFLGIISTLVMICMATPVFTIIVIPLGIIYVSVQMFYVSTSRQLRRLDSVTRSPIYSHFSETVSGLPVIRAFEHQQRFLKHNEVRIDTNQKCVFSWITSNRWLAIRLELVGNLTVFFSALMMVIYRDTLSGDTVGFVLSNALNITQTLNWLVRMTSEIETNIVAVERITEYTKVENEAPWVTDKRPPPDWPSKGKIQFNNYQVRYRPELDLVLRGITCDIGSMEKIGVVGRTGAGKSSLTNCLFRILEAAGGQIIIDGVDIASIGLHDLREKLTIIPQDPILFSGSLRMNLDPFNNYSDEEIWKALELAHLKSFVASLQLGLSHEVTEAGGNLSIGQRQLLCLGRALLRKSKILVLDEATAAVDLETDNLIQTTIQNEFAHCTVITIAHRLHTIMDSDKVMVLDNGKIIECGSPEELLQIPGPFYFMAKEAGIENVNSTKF

Compound: COc1ccc2c3c([nH]c2c1)[C@H](C=C(C)C)N1C(=O)[C@@H]2CCCN2C(=O)[C@@H]1C3 [Fumitremorgin C]
intracellular levels of glutamate, hypoxanthine and xanthine (BCRP [1]): decreased | intracellular pantothenate levels (BCRP [1]): increased

Compound: O[C@@H](COc1cccc2ncccc12)CN1CCN([C@@H]2c3ccccc3[C@@H]3[C@H](c4ccccc42)C3(F)F)CC1 [zosuquidar]
transcellular transport of indinavir in presence of inhibitor (Pgp [4]; Caco-2 monolayer, indinavir 10 µM, 2 h): inhibited | specificity of Pgp inhibition among Pgp, BCRP and MRP2 (functional experiments) (Pgp [4]): specifically inhibit Pgp | change of Pgp signature metabolites with increasing inhibitor concentration (Pgp [5]): concentration dependent change | MTHFR protein expression (MTHFR): increase | thymidylate synthase expression (thymidylate synthase): reduced | methionine synthase expression (methionine synthase): increase | toxicity observed in clinical trials [6]: neurotoxicity

Compound: CN(C)C(=O)CCSC(SCCC(=O)O)c1cccc(/C=C/c2ccc3ccc(Cl)cc3n2)c1 (stereo not drawn) [MK571]
specificity of MRP2 inhibitors (functional assessment, Supplementary Table S1) (MRP2 [2]): lack of specificity | CDCF efflux in presence of inhibitor (MRP2 [2]; Caco-2 monolayer, CDCF 10 µM, 2 h): markedly reduced | change of MRP2 signature metabolites with increasing inhibitor concentration (MRP2 [7]): concentration-dependent change | MTHFR protein expression (MTHFR): significant decrease | thymidylate synthase expression (thymidylate synthase): reduced | Adenosylhomocysteinase (AHCY) protein levels [8]: significantly reduced | Serine Hydroxymethyltransferase 1 (SHMT1) expression [9]: significant reduction

Other lines, results leading:

specificity of MRP2 inhibitors (functional assessment, Supplementary Table S1) (MRP2 [2]): lack of specificity
Compound: CCc1oc2ccccc2c1C(=O)c1cc(Br)c(O)c(Br)c1 [benzbromarone, Benzbromarone]

efflux ratio in BCRP KO cells in comparison with wild type cells (BCRP [3]): reduced
Compound: C[C@]12CC[C@@H]3c4ccc(OS(=O)(=O)O)cc4CC[C@H]3[C@@H]1CCC2=O [estrone-3-sulfate]

Pgp inhibition compared to other additional inhibitors (Pgp [4]; validation inhibitors of Figure 5C): weaker interaction with Pgp
Compound: CN(C)CCCN1c2ccccc2Sc2ccc(Cl)cc21 [chlorpromazine]

efflux ratio in MRP2 KO cells in comparison with wild type cells (MRP2 [2]; C2BBe1 Caco-2 MRP2 KO vs WT): reduced
Compound: 5(6)-carboxy-2′,7′-dichlorofluorescein [CDCF]

specificity of Pgp inhibition among Pgp, BCRP and MRP2 (functional experiments) (Pgp [4]): specifically inhibit Pgp
Compound: C/C=C/C[C@@H](C)C(=O)[C@H]1C(=O)N[C@@H](C(C)C)C(=O)N(C)CC(=O)N(C)[C@@H](CC(C)C)C(=O)N[C@@H](C(C)C)C(=O)N(C)[C@@H](CC(C)C)C(=O)N[C@@H](C)C(=O)N[C@H](C)C(=O)N(C)[C@@H](CC(C)C)C(=O)N(C)[C@@H](CC(C)C)C(=O)N(C)[C@@H](C(C)C)C(=O)N1C [valspodar]
